Results reported in patent publication US8840898B2, “Immunoconjugates targeting syndecan-1 expressing cells and use thereof” (priority 2004, dated 2014).

Tests used:
[1] = system: CD138- cell lines SUDHL4 and WSU-WM; assay: Colorimetric survival assay (MTT), CD138- cells; type: cell-based, human; conditions: 1-50 nM or equimolar concentrations, up to 96 h
Description: (§1) Survival of CD138^+ and CD138^− cells upon administration of B-B4-DM1, B-B4 and DM1 was examined using a tetrazolium colorimetric assay (CellTiter 96® Non-Radioactive Cell Proliferation Assay; Promega, Wis.), as previously described (Mossmann, 1983). Cells (1×10^4) were plated in 24-well plates in 1 ml RPMI complete medium and then treated as indicated. At the end of each treatment, cells were incubated with 150 μl of Dye Solution and then incubated for 4 h at 37° C. A solubilization/stop solution was then added to each well under vigorous pipetting to dissolve the formazan crystals. Absorbance was measured at 570 nm, and cell viability was estimated as percentage of untreated controls. All experiments were repeated 3 times, and each experimental condition was repeated in triplicate wells in each experiment. Data reported are average values±SD of 3 representative experiments.
(§2) The effects of B-B4-DM1 on survival of CD138^+ (MM-1S, MM-1R, Ocy-My5) and CD138^− cells (SUDHL-4 and WSU-WM) were determined using an MTT assay. […] Cell survival was measured using an MTT assay. […] CD138^+ MM cell lines MM-1S, MM-1R and Ocy-My5 were evaluated as well as CD138^− cell lines including the lymphoma cell line SUDHL4 and the Waldestrom's Macroglobulinemia cell line WSU-WM.

[2] = cited from earlier work
[3] = system: CD138+ MM cell lines MM-1S, MM-1R and Ocy-My5; assay: Colorimetric survival assay (MTT), CD138+ cells; type: cell-based, human; conditions: 1-50 nM or equimolar concentrations, up to 96 h
Description: as §1, §2

CD138+ Ocy-My5 MM cells = assay: Detection of apoptosis (Annexin V / PI); type: cell-based, human; conditions: 10 nM, 48 h exposure
Description: Dual staining with FITC-labeled Annexin V and propidium iodide (PI) was carried out to detect induction of apoptotic cell death by B-B4-DM1. After treatment of 1×10^6 tumor cells for 48 h, cells were washed with PBS and re-suspended in 100 µl of HEPES buffer containing Annexin V-FITC and propidium iodide (PI) (Annexin V-FLUOS staining kit; Roche Diagnostic, Indianapolis, Ind.). Following 15 min incubation at room temperature, cells were analyzed using a Coulter Epics XL flow cytometer for the presence of an Annexin V-FITC-positive/PI-negative apoptotic cell population.
[…] Apoptotic cell death was then measured by staining with annexin V and PI and flow cytometric analysis.
Percentages of stained cells are reported in each quadrant. […] Ocy-My5 MM cells were exposed to B-B4 mAb (13.3 μg/ml) or B-B4-DM1 (10 nM) for 48 h, labeled with PI, and analyzed using flow cytometry. Percentages of cells in the S-phase (S) and G2/M phase (G2) are indicated.

[4] = system: CD138+ Ocy-My5 MM cells adherent to BMSC; assay: Cell proliferation assay ([3H]-thymidine) on cells adherent to BMSC, Ocy-My5; type: cell-based, human; conditions: 10 nM, 72 h treatment
Description: (§3) The effect of B-B4-DM1 on cell proliferation was measured by the extent of [^3H]-thymidine (NEN Life Science Products, Boston, Mass.) incorporation. Cells (2×10^4 cells/well) were incubated in 96-well culture plates in the presence of 70%-80% confluent BMSCs at 37° C. with or without a test-agent (in triplicate wells). [^3H]-thymidine (0.5 μCi) was then added to each well for the last 8 h. Cells were harvested onto glass filters with an automatic cell harvester (Cambridge Technology, Cambridge, Mass.) and counted using a Micro-Beta® Trilux counter (Wallac, Gaithersburgh, Md.).
(§4) Since adhesion of MM cells to BMSC (bone marrow stromal cells) protects MM cells against drug-induced apoptosis, the effect of B-B4-DM1 on proliferation of CD138^+ (Ocy-My5) MM and CD138^− (SUDHL-4) LB cells adherent to BMSC was evaluated.
(§5) Ocy-My5 (FIG. 3A) or SUDHL-4 (FIG. 3B) cells (2×10^4) were seeded on 70%-80% confluent BMSC for 24 h. Cell proliferation was measured by [^3H]thymidine incorporation following 72 h treatment with B-B4-DM1 (10 nM). Values represent the mean [^3H]-TdR incorporation (cpm) of triplicate cultures.

[5] = system: CD138- SUDHL-4 cells adherent to BMSC; assay: Cell proliferation assay ([3H]-thymidine) on cells adherent to BMSC, SUDHL-4; type: cell-based, human; conditions: SUDHL-4 on BMSC; 10 nM; 72 h treatment
Description: as §3, §4, §5

[6] = cited from earlier work; remark: listed apart in the source

Row | SMILES | Cell survival / growth (MTT assay) [1] | Cytotoxicity relative to maytansine ([2]; more cytotoxic) | Cell survival / growth (MTT assay) [3] | annexin V+/PI- and annexin V+/PI+ fractions (apoptotic cell death) (CD138+ Ocy-My5 MM cells) | Cell proliferation ([3H]thymidine incorporation) [4] | Cell proliferation ([3H]thymidine incorporation) [5] | Cytotoxicity relative to anti-cancer drugs in clinical use that affect tubulin polymerization (Vinca alkaloids, taxol) ([2]; higher) | Adverse effects in clinical trials [6]
1 | COc1cc2cc(c1Cl)N(C)C(=O)C[C@H](OC(=O)[C@H](C)N(C)C(=O)CCS)[C@]1(C)O[C@H]1[C@H](C)[C@@H]1C[C@@](O)(NC(=O)O1)[C@H](OC)/C=C/C=C(\C)C2 [DM1, N^2-deacetyl-N^2-(3-mercapto-1-oxopropyl)-maytansine] | equally and highly cytotoxic | 3- to 10 fold | equally and highly cytotoxic | significant increase | cytotoxic to both cell lines | cytotoxic to both cell lines |  | 
2 | COc1cc2cc(c1Cl)N(C)C(=O)C[C@H](OC(=O)[C@H](C)N(C)C(C)=O)[C@]1(C)O[C@H]1[C@H](C)[C@@H]1C[C@@](O)(NC(=O)O1)[C@H](OC)/C=C/C=C(\C)C2 [maytansine] |  |  |  |  |  |  | 200-1000 fold | serious adverse effects on the central nervous system and gastrointestinal system
